Laboratory results: patent US20080248008A1, “Inhibitors of Protein Kinase a Anchoring” (priority 2004, published 2008)

Columns and labels:
[1] = molecular target: T1, RI in lipid rafts of Jurkat T cells (Homo sapiens, UniProt P10644); assay: PKA content of lipid rafts from transfected Jurkat T cells (densitometry); format: cell-based; details: n=1
T1 construct: endogenous in cells; host or cells: Jurkat T cells
Protocol: Densitometric analysis. The densitometric analysis was performed using Scion Image (www.scioncorp.com) (Scion Coorperation, Mo., USA) or Quantity One version 4.5.0, (BioRad).
Cell cultures and transient transfections. The human leukemic T cell line Jurkat (clone E6.1), Jurkat TAg, a derivative of the Jurkat cell line stably transfected with the SV40 large T antigen (Clipstone, N. A., and Crabtree, G. R., 1992, Nature. 357:695-697) was cultured at 37° C. in RPMI medium (Gibco BRL) supplemented with 10% fetal calf serum, 2 mM glutamine, penicillin, streptomycin, 1 mM sodium pyruvate and nonessential amino acids. For transfections, cells (5×10^6) in 0.4 ml Opti-MEM were mixed with 40 μg of each DNA construct (GFP-MEME3 or GFP-Scrambled MEME3) in electroporation cuvettes with a 0.4-cm electrode gap (BioRad Laboratories) and subjected to an electric field of 250 V/cm with 960 μF capacitance. A total of 2×10^7 cells were transfected per DNA construct. The cells were expanded in complete medium and harvested after 20 h. The transfection efficiency was determined by microscopic analysis.
Immunoblot analysis. Immunocomplexes and lipid raft fractions were analysed on a 10, 15% or 4-20% PAGE and blotted onto PVDF membranes. […]
Lipid Raft Purification. […] The fractions were analysed by immunoblot analysis. […]

PKA-RIIα = molecular target: T2, PKA-RIIα (Mus musculus, UniProt P12367); assay: Solid phase immobilization from Y-1 adrenal cell lysate, PKA-RIIα; format: binding; details: overnight
T2 construct: host or cells: mouse Y-1 adrenocortical cells (lysate)
T2 sequence (P12367 whole entry): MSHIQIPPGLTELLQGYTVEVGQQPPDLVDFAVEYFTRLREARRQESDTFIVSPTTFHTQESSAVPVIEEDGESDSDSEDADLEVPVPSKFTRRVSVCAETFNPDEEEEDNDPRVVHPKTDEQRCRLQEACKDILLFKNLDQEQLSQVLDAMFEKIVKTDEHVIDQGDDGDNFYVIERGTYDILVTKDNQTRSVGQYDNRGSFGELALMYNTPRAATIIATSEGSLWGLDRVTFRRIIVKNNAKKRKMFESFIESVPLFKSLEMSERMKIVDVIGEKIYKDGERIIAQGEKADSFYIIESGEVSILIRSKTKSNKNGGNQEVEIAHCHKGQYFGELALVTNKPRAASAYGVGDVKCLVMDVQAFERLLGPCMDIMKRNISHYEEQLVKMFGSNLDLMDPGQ
Protocol: Solid phase assay and cell lysate. 5×10^6 Y1 cells or 20×10^6 Jurkat T cells lysed in 150 mM NaCl, 1% NP-40, 0.5% deoxycholate, 0.1% SDS and 50 mM Tris HCl (7.8) were incubated overnight at 4° C. with MEME3 and SM3 peptides synthesized on membranes (Autospot, Intavis, AG). The membranes were washed two times for 10 minutes in lysis buffer and thereafter in high salt lysis buffer (1 M NaCl) before boiling in SDS-PAGE loading buffer.
A solid phase immobilization assay (schematic illustration in FIG. 24, left panel) was used to analyse endogenous PKA binding to MEME3. MEME3 and SM3 peptides synthesized in triplicate on membranes were incubated overnight in lysate from Y-1 adrenal cells. Thereafter bound proteins were eluted, subjected to 10% PAGE and analysed by immunoblotting using specific antibodies against PKA-RIα, PKA-C and PKA-RIIα subunits.

PKA-RIα = molecular target: T3, PKA-RIα (Mus musculus, UniProt Q9DBC7); assay: Immunofluorescence of PKA-RIα at mitochondria in Y1 adrenal cells; format: cell-based
T3 construct: host or cells: mouse Y-1 adrenocortical cells
Protocol: Mouse adrenocortical Y1 cells were obtained from ATCC (Cat. No. CCL-79) and maintained in DMEM/HAM'S F-12 (Cat. No. E15-813, PAA Laboratories GmbH, Pasching, Austria) supplemented with 100 μg/ml streptomycin, 100 U/ml penicillin and 10% (v/v) fetal calf serum in a humidified atmosphere of 5% CO2 and split by trypsination at less than 80% confluence.
Immunofluorescence analysis of cells was performed as previously described (Collas, P. et al., 1996, J. Cell Biol. 135, 1715-1725). RI was detected by using an anti-RI monoclonal antibody (Transduction Laboratories) as a primary antibody at a […] and Alexa-488 as a secondary antibody (1:600, Goat anti Mouse IgGs, Molecular Probes). Immunofluorescence was performed on Y1 cells attached to collagen/fibronectin coated coverslips. Mitochondria were stained using MitoTracker Red CMXRos (Molecular Probes) in fresh medium with incubation at 37° C. for 30 min prior to cell fixation. All cells were washed in PBS, fixed with 3% paraformaldehyde and permeabilised using 0.1% Triton X-100. Proteins were blocked in 2% BSA/PBST prior to antibody labeling. […] Alternatively, fluorescently labeled cells were examined using a Leica TCS SP1 confocal fluorescence microscope (Leica, Heidelberg, Germany) equipped with an Ar (488 nm) and two He/Ne (543 and 633 nm) laser lines. […]

Q: `CC[C@H](C)[C@H](NC(=O)[C@H](CCC(N)=O)NC(=O)[C@H](CC(=O)O)NC(=O)[C@H](C)NC(=O)[C@H](CC(C)C)NC(=O)[C@H](CCC(N)=O)NC(=O)[C@H](CC(N)=O)NC(=O)[C@H](C)NC(=O)[C@H](Cc1ccc(O)cc1)NC(=O)[C@H](CCC(N)=O)NC(=O)[C@H](CCC(=O)O)NC(=O)[C@@H](N)CC(C)C)C(=O)N[C@H](C(=O)N[C@@H](CCCCN)C(=O)N[C@@H](CCC(=O)O)C(=O)N[C@@H](C)C(=O)N[C@H](C(=O)N[C@@H](CCC(=O)O)C(=O)N[C@@H](CCCCNC(=O)c1ccc2c(c1)C(=O)OC21c2ccc(O)cc2Oc2cc(O)ccc21)C(N)=O)[C@@H](C)O)[C@@H](C)CC` [MEME3] was tested. Which reduction of RI concentration in lipid rafts compared to SM3 [1] did it give?
A: The reduction of RI concentration in lipid rafts compared to SM3 was 40%.

Q: “IEKELAQQYQNADAITLE [SM3, scrambled MEME3 negative control peptide, reference compound]” was tested. Which “immobilization of PKA-RIIα” value (PKA-RIIα) did it give?
A: Its value is “Neither PKA-RIα, PKA-C nor PKA-RIIα were immobilized”.

Q: How did the “displacement of PKA-RIα from mitochondria” value (PKA-RIα) turn out when “LEQYANQLADQIIKEATERRRRRRRRRrr [MEME3-Arg11]” was run?
A: Its value is “displaced from mitochondria”.
